Source: PubChem BioAssay (NCI)
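Assay format: 96-well plates, 48-hour exposure. At the GI50, growth is halved. TGI denotes the concentration required for complete inhibition of growth.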

Columns and labels:
Test in all cases: NCI anticancer screen, dose series, 48 h
[1] = system: OVCAR-4 ovarian
[2] = system: SF-539 CNS
[3] = system: M14 melanoma
[4] = system: MALME-3M melanoma
[5] = system: SK-OV-3 ovarian
[6] = system: IGROV1 ovarian
[7] = system: HOP-92 NSCLC
[8] = system: COLO 205 colon
[9] = system: OVCAR-8 ovarian
[10] = system: SF-268 CNS
[11] = system: UACC-257 melanoma
[12] = system: HS 578T breast
[13] = system: ACHN renal
[14] = system: SNB-19 CNS
[15] = system: U251 CNS
[16] = system: SK-MEL-5 melanoma
[17] = system: EKVX NSCLC
[18] = system: NCI-H226 lung
[19] = system: HCT-15 colon
[20] = system: OVCAR-3 ovarian
[21] = system: SK-MEL-28 melanoma
[22] = system: A549 NSCLC
[23] = system: SNB-75 CNS
[24] = system: LOX IMVI melanoma
[25] = system: UO-31 renal
[26] = system: SK-MEL-2 melanoma
[27] = system: 786-0 renal
[28] = system: BT-549 breast
[29] = system: SR leukemia
[30] = system: NCI/ADR-RES ovarian
[31] = system: PC-3 prostate
[32] = system: HCC-2998 colon
[33] = system: UACC-62 melanoma
[34] = system: KM12 colon
[35] = system: T-47D breast
[36] = system: MOLT-4 leukemia
[37] = system: TK-10 renal
[38] = system: MDA-MB-468 breast
[39] = system: CAKI-1 renal
[40] = system: DU-145 prostate
[41] = system: OVCAR-5 ovarian
[42] = system: A498 renal
[43] = system: SW-620 colon
[44] = system: HCT-116 colon
[45] = system: MDA-MB-231 breast
[46] = system: RPMI-8226 leukemia
[47] = system: NCI-H460 lung
[48] = system: MDA-MB-435
[49] = system: SN12C renal
[50] = system: NCI-H522 lung
[51] = system: K-562 leukemia
[52] = system: HOP-62 NSCLC
[53] = system: NCI-H23 lung
[54] = system: HT29 colon
[55] = system: HL-60(TB) leukemia
[56] = system: SF-295 CNS
[57] = system: CCRF-CEM leukemia
[58] = system: RXF 393 renal
[59] = system: MCF7 breast

Clc1ccc(-c2nc3ccc(-c4nnc(SCc5ccccc5)o4)cc3[nH]2)cc1
GI50 [1]: 3.87 µM | TGI [1]: 21.9 µM | GI50 [2]: 2.98 µM | TGI [2]: 10.2 µM | GI50 [3]: 25.5 µM | TGI [3]: > 100 µM | GI50 [4]: 16.1 µM | TGI [4]: 83.2 µM | GI50 [5]: 23 µM | TGI [5]: > 100 µM | GI50 [6]: 7.37 µM | TGI [6]: > 100 µM | GI50 [7]: 11.5 µM | TGI [7]: 48.3 µM | GI50 [8]: 15.5 µM | TGI [8]: > 100 µM | GI50 [9]: 6.49 µM | TGI [9]: 27.5 µM | GI50 [10]: 7.59 µM | TGI [10]: > 100 µM | GI50 [11]: 22.8 µM | TGI [11]: > 100 µM | GI50 [12]: 12.2 µM | TGI [12]: > 100 µM | GI50 [13]: 14.5 µM | TGI [13]: > 100 µM | GI50 [14]: 5.85 µM | TGI [14]: > 100 µM | GI50 [15]: 2.69 µM | TGI [15]: 6.8 µM | GI50 [16]: 4.87 µM | TGI [16]: 33.4 µM | GI50 [17]: 4.18 µM | TGI [17]: 39 µM | GI50 [18]: 7.54 µM | TGI [18]: 36 µM | GI50 [19]: 3.75 µM | TGI [19]: 27.4 µM | GI50 [20]: 2.7 µM | TGI [20]: 7.61 µM | GI50 [21]: 36.9 µM | TGI [21]: > 100 µM | GI50 [22]: 3.78 µM | TGI [22]: > 100 µM | GI50 [23]: 2.13 µM | TGI [23]: 22.9 µM | GI50 [24]: 4.95 µM | TGI [24]: 40.7 µM | GI50 [25]: 9.18 µM | TGI [25]: > 100 µM | GI50 [26]: 16.2 µM | TGI [26]: > 100 µM | GI50 [27]: 4.03 µM | TGI [27]: > 100 µM | GI50 [28]: 24 µM | TGI [28]: > 100 µM | GI50 [29]: 5.86 µM | TGI [29]: > 100 µM | GI50 [30]: 4.09 µM | TGI [30]: 21.5 µM | GI50 [31]: 6.21 µM | TGI [31]: > 100 µM | GI50 [32]: 19.9 µM | TGI [32]: > 100 µM | GI50 [33]: 13.8 µM | TGI [33]: > 100 µM | GI50 [34]: 17.6 µM | TGI [34]: > 100 µM | GI50 [35]: 3.05 µM | TGI [35]: 41.3 µM | GI50 [36]: 4.71 µM | TGI [36]: > 100 µM | GI50 [37]: > 100 µM | TGI [37]: > 100 µM | GI50 [38]: 3.32 µM | TGI [38]: 15.3 µM | GI50 [39]: 16.1 µM | TGI [39]: 54.7 µM | GI50 [40]: 57 µM | TGI [40]: > 100 µM | GI50 [41]: 5.87 µM | TGI [41]: 97.1 µM | GI50 [42]: 18.2 µM | TGI [42]: 42.5 µM | GI50 [43]: 3.41 µM | TGI [43]: 43.2 µM | GI50 [44]: 3.25 µM | TGI [44]: > 100 µM | GI50 [45]: 5.36 µM | TGI [45]: 36.1 µM | GI50 [46]: 8.07 µM | TGI [46]: > 100 µM | GI50 [47]: 5.37 µM | TGI [47]: > 100 µM | GI50 [48]: 8.65 µM | TGI [48]: > 100 µM | GI50 [49]: 1.87 µM | TGI [49]: 4.05 µM | GI50 [50]: 2.83 µM | TGI [50]: 10.3 µM | GI50 [51]: 4.78 µM | TGI [51]: > 100 µM | GI50 [52]: 16.4 µM | TGI [52]: 86.6 µM | GI50 [53]: 6.21 µM | TGI [53]: 74.2 µM | GI50 [54]: 16.9 µM | TGI [54]: > 100 µM | GI50 [55]: 26.2 µM | TGI [55]: > 100 µM | GI50 [56]: 5.41 µM | TGI [56]: 52.3 µM | GI50 [57]: 4.91 µM | TGI [57]: > 100 µM | GI50 [58]: 3.58 µM | TGI [58]: 48.6 µM | GI50 [59]: 3.08 µM | TGI [59]: > 100 µM
